US5554378A, “Pharmaceutical composition and its mucosal use” (Takeda Chemical Industries, Ltd., priority 1990, dated 1996)

Key:
[1] = Blood glucose after intranasal delivery of insulin to rats; format: in vivo, Male SD rats; details: for Glucose (% relative to glucose level before administration): intranasal, insulin 10 U/kg, mean ± SE, n = 5 (SE in parentheses)
Description: (§1) Male SD rats (5 per group) weighing about 220 g were fasted for 16 hours. Under pentobarbital anaesthesia, the animals were prepared for intranasal therapy according to the procedure described in International Journal of Pharmaceutics 7, 317 (1981). Then, using a micropipet, 0.1 ml/kg of an insulin solution was directly administered into the nasal cavity and the blood was serially sampled from the tail vein for determination of blood glucose and insulin concentrations.
(§2) As said insulin solution, a solution of 10U of porcine insulin (about 0.38 mg) and 0 mg-5 mg of LThB (corresponding to 5%) in 0.1 ml of isotonic buffer (pH 7.4) was used.
(§3) Insulin dose: 10 U/Kg, SD rats, 7W, .male., 220 g
*% relative to glucose level before administration (mean ± SE, n = 5)

[2] = Plasma insulin level (EIA, GLAZYME Kit) after intranasal delivery of insulin to rats; format: in vivo, Male SD rats; details: for Insulin (plasma insulin level): insulin 10 U/kg
Description: as §1, §2, §3
Plasma insulin level: EIA (GLAZYME Kit, Wako)

Row | Substance | Blood glucose level on addition of LThB, compared with the control (without LThB) ([1]; intranasal with insulin, vs control without LThB) | Glucose (% relative to glucose level before administration) ([1]; 0.5 hr) | Glucose (% relative to glucose level before administration) ([1]; 1.0 hr) | Glucose (% relative to glucose level before administration) ([1]; 1.5 hr) | Glucose (% relative to glucose level before administration) ([1]; 2.0 hr) | Glucose (% relative to glucose level before administration) ([1]; 3.0 hr) | Glucose (% relative to glucose level before administration) ([1]; 4.0 hr) | Insulin (plasma insulin level) ([2]; 0.5 hr) | Insulin (plasma insulin level) ([2]; 1.0 hr) | Insulin (plasma insulin level) ([2]; 1.5 hr) | Insulin (plasma insulin level) ([2]; 2.0 hr) | Insulin (plasma insulin level) ([2]; 3.0 hr) | Insulin (plasma insulin level) ([2]; 4.0 hr) | Absorption of insulin from the nasal mucosa (blood insulin concentration) ([2]; with addition of LThB)
1 | LThB | marked fall of blood glucose level |  |  |  |  |  |  |  |  |  |  |  |  | 
2 | insulin, No addition: 10U of porcine insulin (about 0.38 mg) in 0.1 ml of isotonic buffer (pH 7.4), without LThB |  | 135.9 (10.5) % | 141.7 (8.6) % | 133.4 (11.2) % | 127.3 (9.1) % | 132.9 (11.4) % | 136.3 (13.5) % | 0.83 μU/ml | 0.0 μU/ml | 0.0 μU/ml | 0.0 μU/ml | 4.51 μU/ml | 0.0 μU/ml | effectively absorbed from the nasal mucosa
